# Tested on: adult dogs
# Assay: Artery blood pressure waveform analysis before and after taking the drug, dog experiment
# Format: in vivo
# [1] = Code A dog, 500 mg/kg oral, before and after taking the drug (12 hours)
# [2] = Code B dog, 1,200 mg/kg subcutaneous injection, 12 hours after taking the drug
# [3] = Code B dog, 1,200 mg/kg subcutaneous injection, before and after taking the drug (12 hours)
# Protocol: Two adult dogs weighing 12 and 15 kg were used. One (coded A) of them received 500 mg/kg of body weight of acetaminophen oral solution (dissolved in water); and the other one (coded B) received a higher concentration (1,200 mg/kg of body weight) of acetaminophen via subcutaneous injection. After Nembutal was injected and the respirator was put on, the hair on the front legs of the dogs was shaved and a blood pressure waveform sensor was inserted by operation. The waveform of artery blood pressure waveform on brachial position was continuously recorded and analyzed by a computer with a frequency of 100 data per minute. After surgery and before the drug was orally taken or injected, the blood pressure waveform of each dog was measured for two hours as the baseline. After the drug was orally taken or injected, the blood pressure waveform was continuously monitored for analyzing the hepatotoxicity induced by the drug, and blood samples were periodically taken from a tube inserted into the artery for determining the level of hepatotoxicuty.
# The definition of parameter altered amount is: (the parameter value after taking the drug—the parameter value before taking the drug)/the parameter value before taking the drug *100%
structure (smiles),measurement,setting,value
CC(=O)Nc1ccc(O)cc1 [acetaminophen],Time parameter Altered Amount T3 = cd,[1],T3 = cd = −20.0 second
same,Time parameter Altered Amount T4 = de,[1],T4 = de = 23.5 second
same,Time parameter Altered Amount T5 = ae,[1],T5 = ae = 7.9 second
same,Time parameter Altered amount T1 = ab,[1],T1 = ab = −16.7 second
same,oblique angle parameter Altered amount D1 = (Bb-Aa)/ab,[1],D1 = (Bb-Aa)/ab = 22.7 mmHg/sec.
same,oblique angle parameter Altered amount D2 = (Bb-Cc)/bc,[1],D2 = (Bb-Cc)/bc = −10.2 mmHg/sec.
same,oblique angle parameter Altered amount D3 = (Dd-Cc)/cd,[1],D3 = (Dd-Cc)/cd = 40.0 mmHg/sec.
same,oblique angle parameter Altered amount D4 = (Dd-Ee)/de,[1],D4 = (Dd-Ee)/de = −8.3 mmHg/sec.
same,oblique angle parameter Altered amount D5 = D1 + D2,[1],D5 = D1 + D2 = 11.4 mmHg/sec.
same,oblique angle parameter Altered amount D6 = D3 + D4,[1],D6 = D3 + D4 = 26.2 mmHg/sec.
same,highest altered amount (oblique angle parameter),"Code A dog, 500 mg/kg oral, before vs 12 hours after taking the drug, all other parameters lower",40%
same,difference between the blood pressure waveforms before and after taking the drug,"Code A dog, 500 mg/kg oral, before vs after taking the drug for 12 hours (FIG. 5 vs FIG. 6)",no significant difference
same,Oblique angle parameter D1 = (Bb-Aa)/ab,[2],D1 = (Bb-Aa)/ab = 2250 mmHg/sec.
same,Oblique angle parameter D2 = (Bb-Ee)/be,[2],D2 = (Bb-Ee)/be = 1383 mmHg/sec.
same,Oblique angle parameter D3 = (Ff-Ee)/ef,[2],D3 = (Ff-Ee)/ef = 420 mmHg/sec.
same,Oblique angle parameter D4 = (Ff-Gg)/fg,[2],D4 = (Ff-Gg)/fg = 311 mmHg/sec.
same,Oblique angle parameter D5 = D1 + D2,[2],D5 = D1 + D2 = 3633 mmHg/sec.
same,Oblique angle parameter D6 = D3 + D4,[2],D6 = D3 + D4 = 731 mmHg/sec.
same,Pressure parameter P1 = Aa,[2],P1 = Aa = 16 mmHg
same,Pressure parameter P2 = Bb,[2],P2 = Bb = 106 mmHg
same,Pressure parameter P3 = Ee,[2],P3 = Ee = 23 mmHg
same,Pressure parameter P4 = Ff,[2],P4 = Ff = 44 mmHg
same,Pressure parameter P5 = Gg,[2],P5 = Gg = 16 mmHg
same,Ratio parameter RA1 = A6/A5,[2],RA1 = A6/A5 = 0.87
same,Ratio parameter RA2 = A5/A7,[2],RA2 = A5/A7 = 0.53
same,Ratio parameter RA3 = A6/A7,[2],RA3 = A6/A7 = 0.47
same,Ratio parameter RP1 = Ff/Bb,[2],RP1 = Ff/Bb = 0.42
same,Ratio parameter RT1 = ab/ag,[2],RT1 = ab/ag = 0.17
same,Ratio parameter RT2 = ae/ag,[2],RT2 = ae/ag = 0.42
same,Ratio parameter RT3 = af/ag,[2],RT3 = af/ag = 0.63
same,Superficial measure parameter A1 = AabB,[2],A1 = AabB = 2.44 sec. * mmHg
same,Superficial measure parameter A2 = BbeE,[2],A2 = BbeE = 2.58 sec. * mmHg
same,Superficial measure parameter A3 = EefF,[2],A3 = EefF = 1.68 sec. * mmHg
same,Superficial measure parameter A4 = FfgG,[2],A4 = FfgG = 2.70 sec. * mmHg
same,Superficial measure parameter A5 = A1 + A2,[2],A5 = A1 + A2 = 5.02 sec. * mmHg
same,Superficial measure parameter A6 = A3 + A4,[2],A6 = A3 + A4 = 4.38 sec. * mmHg
same,Superficial measure parameter A7 = A5 + A6,[2],A7 = A5 + A6 = 9.40 sec. * mmHg
same,Time parameter T1 = ab,[2],T1 = ab = 0.04 second
same,Time parameter T2 = be,[2],T2 = be = 0.06 second
same,Time parameter T3 = ef,[2],T3 = ef = 0.05 second
same,Time parameter T4 = fg,[2],T4 = fg = 0.09 second
same,Time parameter T5 = ag,[2],T5 = ag = 0.24 second
same,number of parameter altered amounts exceeding 100%,"Code B dog, 1,200 mg/kg subcutaneous injection, TABLE 8",six
same,Oblique angle parameter Altered amount D2 = (Bb-Ee)/be,[3],D2 = (Bb-Ee)/be = 349%
same,Oblique angle parameter Altered amount D3 = (Ff-Ee)/ef,[3],D3 = (Ff-Ee)/ef = 23%
same,Oblique angle parameter Altered amount D4 = (Ff-Gg)/fg,[3],D4 = (Ff-Gg)/fg = 677%
same,Pressure parameter Altered amount P1 = Aa,[3],P1 = Aa = −85%
same,Pressure parameter Altered amount P2 = Bb,[3],P2 = Bb = −25%
same,Pressure parameter Altered amount P3 = Ee,[3],P3 = Ee = −79%
same,Pressure parameter Altered amount P4 = Ff,[3],P4 = Ff = −65%
same,Pressure parameter Altered amount P5 = Gg,[3],P5 = Gg = −85%
same,Ratio parameter Altered amount RA1 = A6/A5,[3],RA1 = A6/A5 = 123%
same,Ratio parameter Altered amount RA2 = A5/A7,[3],RA2 = A5/A7 = 89%
same,Ratio parameter Altered amount RA3 = A6/A7,[3],RA3 = A6/A7 = −35%
same,Ratio parameter Altered amount RP1 = Ff/Bb,[3],RP1 = Ff/Bb = −51%
same,Ratio parameter Altered amount RT1 = ab/ag,[3],RT1 = ab/ag = 143%
same,Ratio parameter Altered amount RT2 = ae/ag,[3],RT2 = ae/ag = 55%
same,Ratio parameter Altered amount RT3 = af/ag,[3],RT3 = af/ag = 85%
same,Superficial measure parameter Altered amount A1 = AabB,[3],A1 = AabB = −62%
same,Superficial measure parameter Altered amount A2 = BbeE,[3],A2 = BbeE = −85%
same,Superficial measure parameter Altered amount A3 = EefF,[3],A3 = EefF = −72%
same,Superficial measure parameter Altered amount A4 = FfgG,[3],A4 = FfgG = −95%
same,Superficial measure parameter Altered amount A5 = A1 + A2,[3],A5 = A1 + A2 = −47%
same,Superficial measure parameter Altered amount A6 = A3 + A4,[3],A6 = A3 + A4 = −61%
same,Superficial measure parameter Altered amount A7 = A5 + A6,[3],A7 = A5 + A6 = −84%
same,Time parameter Altered amount T1 = ab,[3],T1 = ab = −20%
same,Time parameter Altered amount T2 = be,[3],T2 = be = −54%
same,Time parameter Altered amount T3 = ef,[3],T3 = ef = 0%
same,Time parameter Altered amount T4 = fg,[3],T4 = fg = −80%
same,Time parameter Altered amount T5 = ag,[3],T5 = ag = −64%
same,oblique angle parameter Altered amount D1 = (Bb-Aa)/ab,[3],D1 = (Bb-Aa)/ab = 162%
same,oblique angle parameter Altered amount D5 = D1 + D2,[3],D5 = D1 + D2 = 211%
same,oblique angle parameter Altered amount D6 = D3 + D4,[3],D6 = D3 + D4 = 92%

# — patent US7074190B2, “Non-invasive apparatus system for monitoring drug hepatoxicity and uses thereof” (priority 2002, dated 2006)
